For the experiment, the target named is T1, purified human HDAC6 (Homo sapiens, UniProt Q9UBN7).
T1 construct: purchased BPS Bioscience 5006
T1 sequence (Q9UBN7 1-1215): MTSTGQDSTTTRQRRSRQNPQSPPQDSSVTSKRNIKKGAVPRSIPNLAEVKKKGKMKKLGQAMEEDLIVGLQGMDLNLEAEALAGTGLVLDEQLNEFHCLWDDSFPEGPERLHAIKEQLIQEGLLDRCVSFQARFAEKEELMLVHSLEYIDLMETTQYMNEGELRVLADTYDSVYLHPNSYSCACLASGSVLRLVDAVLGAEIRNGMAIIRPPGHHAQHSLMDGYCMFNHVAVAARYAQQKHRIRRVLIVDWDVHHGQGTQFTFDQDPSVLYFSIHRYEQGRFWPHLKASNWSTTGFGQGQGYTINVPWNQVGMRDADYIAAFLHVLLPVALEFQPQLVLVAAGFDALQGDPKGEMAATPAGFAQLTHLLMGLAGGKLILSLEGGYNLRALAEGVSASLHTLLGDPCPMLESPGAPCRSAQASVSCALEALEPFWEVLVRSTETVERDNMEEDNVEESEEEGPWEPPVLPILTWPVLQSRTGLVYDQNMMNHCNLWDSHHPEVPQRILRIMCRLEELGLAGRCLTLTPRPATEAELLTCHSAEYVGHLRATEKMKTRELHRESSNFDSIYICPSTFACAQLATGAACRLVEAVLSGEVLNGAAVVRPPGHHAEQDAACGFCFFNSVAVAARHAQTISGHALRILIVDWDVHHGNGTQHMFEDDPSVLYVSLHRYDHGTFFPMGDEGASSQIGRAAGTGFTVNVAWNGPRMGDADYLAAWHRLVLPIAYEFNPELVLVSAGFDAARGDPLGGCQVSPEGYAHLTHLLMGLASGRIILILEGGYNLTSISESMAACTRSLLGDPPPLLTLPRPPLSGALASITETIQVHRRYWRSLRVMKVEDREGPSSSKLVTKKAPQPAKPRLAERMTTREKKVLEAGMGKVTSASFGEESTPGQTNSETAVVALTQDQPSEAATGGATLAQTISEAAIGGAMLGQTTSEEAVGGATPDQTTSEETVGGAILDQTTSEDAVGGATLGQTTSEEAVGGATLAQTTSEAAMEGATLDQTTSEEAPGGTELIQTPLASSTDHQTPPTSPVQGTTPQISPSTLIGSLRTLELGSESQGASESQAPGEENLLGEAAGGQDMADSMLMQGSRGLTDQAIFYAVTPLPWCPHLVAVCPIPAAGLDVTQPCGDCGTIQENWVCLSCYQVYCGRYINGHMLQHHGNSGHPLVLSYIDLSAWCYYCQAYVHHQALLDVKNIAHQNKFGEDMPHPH
Briefly: HDAC6 Enzyme Assay. In kind it is biochemical. To be noted: compound concentration 0.37 μM, read-out: Percent Inhibition. The method in brief:
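Purified human HDAC6 incubated 1 h at 30° C with Ac-Arg-Gly-Lys(Ac)-AMC peptide plus compound or DMSO; stopped with trichostatin A. Deacetylated product trypsin-digested, released AMC read by fluorescence (Ex 340/Em 460 nm). Percent inhibition at one concentration or IC50 from curves relative to DMSO controls.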

For the compound `CC(C)(C)OC(=O)N1CCC(c2cccc(CCn3ccc4ccc(C(=O)NO)cc4c3=O)c2)CC1` [Compound I-317, tert-butyl 4-(3-{2-[7-[(hydroxyamino)carbonyl]-1-oxoisoquinolin-2(1H)-yl]ethyl}phenyl)piperidine-1-carboxylate], the inhibition at 0.37 µM worked out at 93.2%.

With `O=C(NO)c1ccc2ncn(CCc3cccc(-c4csc5ccccc45)c3)c(=O)c2c1` [Compound I-318, 3-{2-[3-(1-benzothien-3-yl)phenyl]ethyl}-N-hydroxy-4-oxo-3,4-dihydroquinazoline-6-carboxamide], the inhibition at 0.37 µM came out at 86.4%.

With `Cn1cc(-c2cccc(Cn3ccc4ccc(C(=O)NO)cc4c3=O)c2)cn1` [Compound I-319, N-hydroxy-2-[3-(1-methyl-1H-pyrazol-4-yl)benzyl]-1-oxo-1,2-dihydroisoquinoline-7-carboxamide], the inhibition at 0.37 µM turned out to be 98.6%.

Regarding `COc1ncccc1-c1cccc(CCn2cnc3ccc(C(=O)NO)cc3c2=O)c1` [Compound I-320, N-hydroxy-3-{2-[3-(2-methoxypyridin-3-yl)phenyl]ethyl}-4-oxo-3,4-dihydroquinazoline-6-carboxamide], the inhibition at 0.37 µM amounted to 90.4%.

As for `O=C(O)c1ccc(-c2cccc(CCn3cnc4ccc(C(=O)NO)cc4c3=O)c2)cc1` [Compound I-321, 3′-{2-[6-[(hydroxyamino)carbonyl]-4-oxoquinazolin-3(4H)-yl]ethyl}biphenyl-4-carboxylic acid], the inhibition at 0.37 µM was 87.3%.

Take `Nc1cccc(-c2cccc(CCn3cnc4ccc(C(=O)NO)cc4c3=O)c2)c1` [Compound I-322, 3-[2-(3′-aminobiphenyl-3-yl)ethyl]-N-hydroxy-4-oxo-3,4-dihydroquinazoline-6-carboxamide]: the inhibition at 0.37 µM was found to be 76.1%.

Take `O=C(NO)c1ccc2ncn(CCc3cccc(-c4ccn[nH]4)c3)c(=O)c2c1` [Compound I-323, N-hydroxy-4-oxo-3-{2-[3-(1H-pyrazol-5-yl)phenyl]ethyl}-3,4-dihydroquinazoline-6-carboxamide]: the inhibition at 0.37 µM stood at 94.6%.

Consider `O=C(NO)c1ccc2ccn(CCc3cccc(C4CCNCC4)c3)c(=O)c2c1` [Compound I-324, N-hydroxy-1-oxo-2-[2-(3-piperidin-4-ylphenyl)ethyl]-1,2-dihydroisoquinoline-7-carboxamide], for which the inhibition at 0.37 µM is 91.2%.

With `O=C(NO)c1ccc2ncn(CCc3cccc(-c4ccccc4C(F)(F)F)c3)c(=O)c2c1` [Compound I-325, N-hydroxy-4-oxo-3-{2-[2′-(trifluoromethyl)biphenyl-3-yl]ethyl}-3,4-dihydroquinazoline-6-carboxamide], the inhibition at 0.37 µM came to 42.1%.

Turning to `CC(C)(C)C(=O)Nc1ncccc1-c1cccc(CCn2cnc3ccc(C(=O)NO)cc3c2=O)c1` [Compound I-327, 3-[2-(3-{2-[(2,2-dimethylpropanoyl)amino]pyridin-3-yl}phenyl)ethyl]-N-hydroxy-4-oxo-3,4-dihydroquinazoline-6-carboxamide], the inhibition at 0.37 µM worked out at 92%.

As to `O=C(NO)c1ccc2ccn(-c3cccc(-c4ccncc4)c3)c(=O)c2c1` [Compound I-328, N-hydroxy-1-oxo-2-(3-pyridin-4-ylphenyl)-1,2-dihydroisoquinoline-7-carboxamide], the inhibition at 0.37 µM worked out at 96.7%.

As for `COc1ccc(-c2cccc(CCn3cnc4ccc(C(=O)NO)cc4c3=O)c2)cn1` [Compound I-329, N-hydroxy-3-{2-[3-(6-methoxypyridin-3-yl)phenyl]ethyl}-4-oxo-3,4-dihydroquinazoline-6-carboxamide], the inhibition at 0.37 µM turned out to be 92.6%.

Regarding `O=C(NO)c1ccc2ncn(CCc3cccc(-c4cccnc4)c3)c(=O)c2c1` [Compound I-331, N-hydroxy-4-oxo-3-[2-(3-pyridin-3-ylphenyl)ethyl]-3,4-dihydroquinazoline-6-carboxamide], the inhibition at 0.37 µM is 87.2%.

As to `O=C(NO)c1ccc2ncn(CCNCc3cccc(-n4cccn4)c3)c(=O)c2c1` [Compound I-332, N-hydroxy-4-oxo-3-(2-{[3-(1H-pyrazol-1-yl)benzyl]amino}ethyl)-3,4-dihydroquinazoline-6-carboxamide], the inhibition at 0.37 µM came to 90.4%.

In the case of `CC(=O)Nc1ccc(-c2cccc(CCn3cnc4ccc(C(=O)NO)cc4c3=O)c2)cc1` [Compound I-334, 3-{2-[4′-(acetylamino)biphenyl-3-yl]ethyl}-N-hydroxy-4-oxo-3,4-dihydroquinazoline-6-carboxamide], the inhibition at 0.37 µM was found to be 93.8%.

For the compound `Cc1noc(C)c1-c1cccc(CCn2cnc3ccc(C(=O)NO)cc3c2=O)c1` [Compound I-336, 3-{2-[3-(3,5-dimethylisoxazol-4-yl)phenyl]ethyl}-N-hydroxy-4-oxo-3,4-dihydroquinazoline-6-carboxamide], the inhibition at 0.37 µM was 90.5%.

In the case of `O=C(NO)c1ccc2c(CO)cn(Cc3ccccc3)c(=O)c2c1` [Compound I-337, 2-benzyl-N-hydroxy-4-(hydroxymethyl)-1-oxo-1,2-dihydroisoquinoline-7-carboxamide], the inhibition at 0.37 µM is 57.7%.

As to `CC(C)C(c1ccccc1)n1cnc2ccc(C(=O)NO)cc2c1=O` (centres unmarked) [Compound I-338, N-hydroxy-3-(2-methyl-1-phenylpropyl)-4-oxo-3,4-dihydroquinazoline-6-carboxamide], the inhibition at 0.37 µM came out at 96.8%.

As for `COc1cccc(-c2cccc(CCn3cnc4ccc(C(=O)NO)cc4c3=O)c2)c1` [Compound I-339, N-hydroxy-3-[2-(3′-methoxybiphenyl-3-yl)ethyl]-4-oxo-3,4-dihydroquinazoline-6-carboxamide], the inhibition at 0.37 µM turned out to be 89.9%.

Regarding `O=C(NO)c1ccc2ncn(CCC(c3ccccc3)C3CCCCC3)c(=O)c2c1` (centres unmarked) [Compound I-340, 3-(3-cyclohexyl-3-phenylpropyl)-N-hydroxy-4-oxo-3,4-dihydroquinazoline-6-carboxamide], the inhibition at 0.37 µM was 94.9%.

Regarding `CS(=O)(=O)c1cccc(-c2cccc(CCn3cnc4ccc(C(=O)NO)cc4c3=O)c2)c1` [Compound I-341, N-hydroxy-3-{2-[3′-(methylsulfonyl)biphenyl-3-yl]ethyl}-4-oxo-3,4-dihydroquinazoline-6-carboxamide], the inhibition at 0.37 µM worked out at 94.5%.

Consider `CC(C)c1cccc(-c2cccc(CCn3cnc4ccc(C(=O)NO)cc4c3=O)c2)c1` [Compound I-342, N-hydroxy-3-[2-(3′-isopropylbiphenyl-3-yl)ethyl]-4-oxo-3,4-dihydroquinazoline-6-carboxamide], for which the inhibition at 0.37 µM was 69.5%.

For `O=C(NO)c1ccc2ccn(CCC3CCNCC3)c(=O)c2c1` [Compound I-343, N-hydroxy-1-oxo-2-(2-piperidin-4-ylethyl)-1,2-dihydroisoquinoline-7-carboxamide], the inhibition at 0.37 µM came to 91.3%.

Turning to `O=C(NO)c1ccc2ccn(CCc3ccccn3)c(=O)c2c1` [Compound I-344, N-hydroxy-1-oxo-2-(2-pyridin-2-ylethyl)-1,2-dihydroisoquinoline-7-carboxamide], the inhibition at 0.37 µM was 93.1%.

`O=C(NO)c1ccc2ncn(CCc3cccc(-c4cc(Cl)cc(Cl)c4)c3)c(=O)c2c1` [Compound I-345, 3-[2-(3′,5′-dichlorobiphenyl-3-yl)ethyl]-N-hydroxy-4-oxo-3,4-dihydroquinazoline-6-carboxamide]: the inhibition at 0.37 µM worked out at 81.9%.

As to `O=C(NO)c1ccc2ccn(-c3ccccc3F)c(=O)c2c1` [Compound I-346, 2-(2-fluorophenyl)-N-hydroxy-1-oxo-1,2-dihydroisoquinoline-7-carboxamide], the inhibition at 0.37 µM was 87%.

As to `O=C(NO)c1ccc2ncn(CCc3cccc(-c4c(F)cccc4F)c3)c(=O)c2c1` [Compound I-347, 3-[2-(2′,6′-difluorobiphenyl-3-yl)ethyl]-N-hydroxy-4-oxo-3,4-dihydroquinazoline-6-carboxamide], the inhibition at 0.37 µM was 63.7%.

Consider `COCc1cn(Cc2ccccc2)c(=O)c2cc(C(=O)NO)ccc12` [Compound I-394, 2-benzyl-N-hydroxy-4-(methoxymethyl)-1-oxo-1,2-dihydroisoquinoline-7-carboxamide], for which the inhibition at 0.37 µM was 49.2%.

As for `COc1ccc(-c2nc3cc(C(=O)NO)ccc3c(=O)[nH]2)cc1` [Compound I-395, N-hydroxy-2-(4-methoxyphenyl)-4-oxo-3,4-dihydroquinazoline-7-carboxamide], the inhibition at 0.37 µM came out at 80.8%.
